In patent US20230279025A1, “KRAS G12D INHIBITORS” (Mirati Therapeutics, Inc., priority 2020, published 2023):
Structures can show the parent of a compound that is named as a salt.

What was measured:
KRas G12D [1] = target: T1, KRas G12D (Homo sapiens (Human), UniProt P01116, G12D); assay: KRas G12D Binding Assay (TR-FRET displacement of Cy5 labelled tracer); settings: GDP-loaded KRAS G12D (amino acids 1:169), 60 minute incubation at 22° C.
Experimental: After a 60 minute incubation at 22° C., the reaction was measured using a PerkinElmer EnVision multimode plate reader via TR-FRET dual wavelength detection, and the percent of control (POC) calculated using a ratiometric emission factor. […] The POC values were fit to a 4-parameter logistic curve and the IC50 value was determined as the concentration where the curve crosses 50 POC.
ND stands for “not determined.”
Target sequence in this assay (P01116 other isoform, or with tags, fused parts or gaps G12D): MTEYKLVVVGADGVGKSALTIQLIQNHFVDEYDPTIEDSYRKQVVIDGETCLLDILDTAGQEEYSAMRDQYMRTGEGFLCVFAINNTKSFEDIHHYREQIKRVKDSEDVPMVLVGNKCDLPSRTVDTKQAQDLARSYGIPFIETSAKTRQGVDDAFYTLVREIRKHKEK

KRas G12D [2] = target: T1, KRas G12D; assay: KRas G12D Surface Plasmon Resonance (SPR) Binding Assay; settings: Biacore T200, immobilized biotinylated KRAS protein, 1:1 binding model
Experimental: Briefly, 1L of 1.05X HBS-Mg buffer (262.5 mM Bioultra Hepes, pH 7.5, 157.5 mM NaCl, 105 mM MgCl2, 0.525 mM TCEP, 0.0305% Brij-35) was prepared and filter sterilized using a 0.22 μm bottle top filter. Approximately 50 mL of 1.05X HBS-Mg buffer was removed and saved for future dilutions. A 50 mL aliquot of DMSO (Sigma Aldrich DMSO Lot. #SHBK2079) was added and continued to stir for 10 minutes, creating the final 1.0X HBS-Mg buffer (250 mM Bioultra Hepes pH 7.5, 150 mM NaCl, 100 mM MgCl2, 0.5 mM TCEP, 0.03% Brij-35).
Biacore T200 instrument was primed using 1.0X HBS-Mg buffer before docking a GE Streptavidin (SA) chip and then primed two additional times prior to beginning the immobilization step. All immobilized protein mixtures were created using 3-5 mg/mL Biotinylated Avidin-tagged KRAS protein using the following immobilization settings: SA chip type, 1 flow cells per cycle, 720 second contact time, and 5 ul/min flow rate. Normalization of the detector was also performed during the immobilization step using the GE BiaNormalize solution.
All compounds were diluted to 10 mM in 100% DMSO prior to being diluted 20X in 1.05X buffer. Another 10X dilution was created using 1.0X buffer prior to performing a series of 3X dilutions to create a compound concentration curve using the following assay settings: 20C analysis temperature, General Settings=10 Hz data collection rate and multi-detection; Assay Steps=all set to LMW kinetics; Cycle Types=LMW kinetics (60 s contact time, 120 s dissociation time, 100 ul/min flow rate, extra wash after injection with 50% DMSO, flow path 1,2,3,4); Flow path detection=2-1, 4-3). Data evaluation was performed using the Biacore T200 Evaluation software and data fit to 1:1 binding model. ND=not determined.
Target sequence in this assay (P01116-2 other isoform, or with tags, fused parts or gaps G12D): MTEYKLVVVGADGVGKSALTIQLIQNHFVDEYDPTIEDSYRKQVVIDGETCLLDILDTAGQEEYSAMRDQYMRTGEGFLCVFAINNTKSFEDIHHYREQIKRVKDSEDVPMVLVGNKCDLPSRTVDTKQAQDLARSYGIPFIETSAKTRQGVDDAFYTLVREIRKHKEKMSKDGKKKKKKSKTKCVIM

SMILES	IC50 (KRas G12D [1]) [nM]	Kd (KRas G12D [2]) [nM]
Cc1nccn1CCOc1nc(N2CC3CCC(C2)N3)c2cnc(-c3cc(O)cc4ccccc34)c(F)c2n1 [Example 84, 4-(4-((1R,5S)-3,8-diazabicyclo[3.2.1]octan-3-yl)-8-fluoro-2-(2-(2-methyl-1H-imidazol-1-yl)ethoxy)pyrido[4,3-d]pyrimidin-7-yl)naphthalen-2-ol]	31.7	14.4
Oc1cc(-c2ncc3c(N4C[C@H]5CC[C@@H](C4)N5)nc(OCCCC(F)(F)F)nc3c2F)c2ccccc2c1 [Example 38, 4-(4-((1R,5S)-3,8-diazabicyclo[3.2.1]octan-3-yl)-8-fluoro-2-(4,4,4-trifluorobutoxy)pyrido[4,3-d]pyrimidin-7-yl)naphthalen-2-ol]	174	750
Cn1cncc1COc1nc(N2C[C@H]3CC[C@@H](C2)N3)c2cnc(-c3cc(O)cc4ccccc34)c(F)c2n1 [Example 95, 4-(4-((1R,5S)-3,8-diazabicyclo[3.2.1]octan-3-yl)-8-fluoro-2-((1-methyl-1H-imidazol-5-yl)methoxy)pyrido[4,3-d]pyrimidin-7-yl)naphthalen-2-ol]	561	1130
CN1CCC[C@H]1COc1nc(N2C[C@H]3CC[C@@H](C2)N3)c2cnc(-c3cc(O)cc4ccccc34)cc2n1 [Example 1, 4-(4-((1R,5S)-3,8-diazabicyclo[3.2.1]octan-3-yl)-2-(((S)-1-methylpyrrolidin-2-yl)methoxy)pyrido[4,3-d]pyrimidin-7-yl)naphthalen-2-ol tris-hydrochloride salt]	125	97.7
CN(C)C1CN(c2nc(N3C[C@H]4CC[C@@H](C3)N4)c3cnc(-c4cc(O)cc5ccccc45)c(F)c3n2)C1 [Example 120, 4-(4-((1R,5S)-3,8-diazabicyclo[3.2.1]octan-3-yl)-2-(3-(dimethylamino)azetidin-1-yl)-8-fluoropyrido[4,3-d]pyrimidin-7-yl)naphthalen-2-ol bis(2,2,2-trifluoroacetate)]	28.8	42.1
CN1CCC[C@H]1COc1nc(N2CC3CCC(C2)N3)c2cnc(-c3cccc4c3CCC4O)c(F)c2n1 (stereo partly drawn) [Example 318, 4-(4-((1R,5S)-3,8-diazabicyclo[3.2.1]octan-3-yl)-8-fluoro-2-(((S)-1-methylpyrrolidin-2-yl)methoxy)pyrido[4,3-d]pyrimidin-7-yl)-2,3-dihydro-1H-inden-1-ol]	> 10000	368000
CO[C@@H]1C[C@@H]2CN(c3nc(OC[C@@]45CCCN4C[C@H](F)C5)nc4c(F)c(-c5cccc6cccc(Cl)c56)ncc34)C[C@H]1N2 [Example 397, 7-(8-chloronaphthalen-1-yl)-8-fluoro-2-((2-fluorotetrahydro-1H-pyrrolizin-7a(5H)-yl)methoxy)-4-((1R,5R,6R)-6-methoxy-3,8-diazabicyclo[3.2.1]octan-3-yl)pyrido[4,3-d]pyrimidine]	887	183
O=Cc1cc(CCCOc2nc(N3C[C@H]4CC[C@@H](C3)N4)c3cnc(-c4cccc5cccc(Cl)c45)c(F)c3n2)ccc1O [Example 320, 5-(3-((4-((1R,5S)-3,8-diazabicyclo[3.2.1]octan-3-yl)-7-(8-chloronaphthalen-1-yl)-8-fluoropyrido[4,3-d]pyrimidin-2-yl)oxy)propyl)-2-hydroxybenzaldehyde]	> 10000	71600
Oc1cc(-c2ncc3c(N4C[C@H]5CC[C@@H](C4)N5)nc(OC[C@@H]4CCCN4)nc3c2F)c2ccccc2c1 [Example 50, 4-(4-((1R,5S)-3,8-diazabicyclo[3.2.1]octan-3-yl)-8-fluoro-2-(((S)-pyrrolidin-2-yl)methoxy)pyrido[4,3-d]pyrimidin-7-yl)naphthalen-2-ol]	2.5	2.1
Oc1cc(-c2ncc3c(N4C[C@H]5CC[C@@H](C4)N5)nc(OCc4ccccn4)nc3c2F)c2ccccc2c1 [Example 89, 4-(4-((1R,5S)-3,8-diazabicyclo[3.2.1]octan-3-yl)-8-fluoro-2-(pyridin-2-ylmethoxy)pyrido[4,3-d]pyrimidin-7-yl)naphthalen-2-ol]	679	4310
CN1C[C@H](C(F)(F)F)C[C@H]1COc1nc(N2C[C@H]3CC[C@@H](C2)N3)c2cnc(-c3cc(O)cc4ccccc34)c(F)c2n1 [Example 28, 4-(4-((1R,5S)-3,8-diazabicyclo[3.2.1]octan-3-yl)-8-fluoro-2-(((2S,4R)-1-methyl-4-(trifluoromethyl)pyrrolidin-2-yl)methoxy)pyrido[4,3-d]pyrimidin-7-yl)naphthalen-2-ol]	–	58.7
CN1CCC[C@H]1COc1nc(N2C[C@H]3CC[C@@H](C2)N3)c2cnc(-c3cccc4c3CCC4)c(F)c2n1 [Example 23, 4-((1R,5S)-3,8-diazabicyclo[3.2.1]octan-3-yl)-7-(2,3-dihydro-1H-inden-4-yl)-8-fluoro-2-(((S)-1-methylpyrrolidin-2-yl)methoxy)pyrido[4,3-d]pyrimidine]	–	807
CN1CCC[C@H]1COc1nc(N2CC3CCC(CO)(C2)N3)c2cnc(-c3cc(O)cc4ccccc34)c(F)c2n1 (stereo partly drawn) [Example 215, 4-(8-fluoro-4-(1-(hydroxymethyl)-3,8-diazabicyclo[3.2.1]octan-3-yl)-2-(((S)-1-methylpyrrolidin-2-yl)methoxy)pyrido[4,3-d]pyrimidin-7-yl)naphthalen-2-ol bis(2,2,2-trifluoroacetate)]	–	70.4
CCN1CCC[C@H]1COc1nc(N2C[C@H]3CC[C@@H](C2)N3)c2cnc(-c3cc(O)cc4ccccc34)c(F)c2n1 [Example 11, 4-(4-((1R,5S)-3,8-diazabicyclo[3.2.1]octan-3-yl)-2-(((S)-1-ethylpyrrolidin-2-yl)methoxy)-8-fluoropyrido[4,3-d]pyrimidin-7-yl)naphthalen-2-ol]	–	4.9
COc1cccnc1CCOc1nc(N2C[C@H]3CC[C@@H](C2)N3)c2cnc(-c3cc(O)cc4ccccc34)c(F)c2n1 [Example 140, 4-(4-((1R,5S)-3,8-diazabicyclo[3.2.1]octan-3-yl)-8-fluoro-2-(2-(3-methoxypyridin-2-yl)ethoxy)pyrido[4,3-d]pyrimidin-7-yl)naphthalen-2-ol]	–	5590
CN1CCC[C@H]1COc1nc(N2CC3CCC(C=O)(C2)N3)c2cnc(-c3cc(O)cc4ccccc34)c(F)c2n1 (stereo partly drawn) [Example 214, 3-(8-fluoro-7-(3-hydroxynaphthalen-1-yl)-2-(((S)-1-methylpyrrolidin-2-yl)methoxy)pyrido[4,3-d]pyrimidin-4-yl)-3,8-diazabicyclo[3.2.1]octane-1-carbaldehyde]	–	284
Oc1cc(-c2ncc3c(N4C[C@H]5CC[C@@H](C4)N5)nc(OC[C@@H]4CCCN4Cc4ccccc4)nc3c2F)c2ccccc2c1 [Example 12, 4-(2-(((S)-1-benzylpyrrolidin-2-yl)methoxy)-4-((1R,5S)-3,8-diazabicyclo[3.2.1]octan-3-yl)-8-fluoropyrido[4,3-d]pyrimidin-7-yl)naphthalen-2-ol]	–	11
CC(Oc1nc(N2C[C@H]3CC[C@@H](C2)N3)c2cnc(-c3cc(O)cc4ccccc34)c(F)c2n1)C1CCCN1C (stereo partly drawn) [Example 27, 4-(4-((1R,5S)-3,8-diazabicyclo[3.2.1]octan-3-yl)-8-fluoro-2-(1-(1-methylpyrrolidin-2-yl)ethoxy)pyrido[4,3-d]pyrimidin-7-yl)naphthalen-2-ol]	–	25.9
CN1CCC[C@H]1CCOc1nc(N2C[C@H]3CC[C@@H](C2)N3)c2cnc(-c3cc(O)cc4ccccc34)c(F)c2n1 [Example 10, 4-(4-((1R,5S)-3,8-diazabicyclo[3.2.1]octan-3-yl)-8-fluoro-2-(2-((S)-1-methylpyrrolidin-2-yl)ethoxy)pyrido[4,3-d]pyrimidin-7-yl)naphthalen-2-ol]	–	33.8
CN(C)C(=O)CCOc1nc(N2C[C@H]3CC[C@@H](C2)N3)c2cnc(-c3cc(O)cc4ccccc34)c(F)c2n1 [Example 13, 3-((4-((1R,5S)-3,8-diazabicyclo[3.2.1]octan-3-yl)-8-fluoro-7-(3-hydroxynaphthalen-1-yl)pyrido[4,3-d]pyrimidin-2-yl)oxy)-N,N-dimethylpropanamide]	–	511
Oc1cc(-c2ncc3c(N4C[C@H]5CC[C@@H](C4)N5)nc(OCc4ccccc4F)nc3c2F)c2ccccc2c1 [Example 217, 4-(4-((1R,5S)-3,8-diazabicyclo[3.2.1]octan-3-yl)-8-fluoro-2-((2-fluorobenzyl)oxy)pyrido[4,3-d]pyrimidin-7-yl)naphthalen-2-ol]	–	2980
